Measured values from US9346815B2, “5-chloro-2-difluoromethoxyphenyl pyrazolopyrimidine compounds, compositions and methods of use thereof” (Genentech, Inc., priority 2014, dated 2016).
pEC50, pKi: −log10 of the molar value.

What was measured:
[1] = biological target: isolated recombinant JAK1 kinase domain (Homo sapiens (Human), UniProt P23458); test: JAK1 enzyme assay (Caliper LabChip, peptide phosphorylation); type: biochemical; conditions: isolated recombinant JAK1 kinase domain, 25 μM ATP
[2] = biological target: isolated recombinant JAK2 kinase domain (Homo sapiens (Human), UniProt O60674); test: JAK2 enzyme assay (Caliper LabChip, peptide phosphorylation); type: biochemical; conditions: 25 μM ATP
isolated recombinant JAK2 kinase domain, sequence (O60674 849-1124): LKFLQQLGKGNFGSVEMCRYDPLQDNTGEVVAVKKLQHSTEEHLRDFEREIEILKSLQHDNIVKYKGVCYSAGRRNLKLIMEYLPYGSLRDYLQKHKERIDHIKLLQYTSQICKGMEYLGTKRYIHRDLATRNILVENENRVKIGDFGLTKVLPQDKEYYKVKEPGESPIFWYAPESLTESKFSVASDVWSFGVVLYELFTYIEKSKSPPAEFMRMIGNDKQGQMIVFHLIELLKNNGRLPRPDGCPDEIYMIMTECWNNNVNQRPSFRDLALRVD

[3] = test system: JAK1-dependent STAT6 phosphorylation downstream of IL-13 stimulation in TF-1 human erythroleukemia cells; test: JAK1 pathway assay in TF-1 cells (IL-13-pSTAT6, MSD); type: cell-based; conditions: Homo sapiens, TF-1, TF-1 cells, read-out: IL13-pSTAT6 EC50_TF-1
Summary of the method: (§1)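 TF-1 cells starved of GM-CSF overnight, assayed serum-free; BEAS-2B cells in complete growth medium. Lysate pSTAT6 measured by MSD; EC50 derived.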

[4] = test system: JAK1-dependent STAT6 phosphorylation downstream of IL-13 stimulation in BEAS-2B human bronchial epithelial cells; test: JAK1 pathway assay in BEAS-2B cells (IL-13-pSTAT6, MSD); type: cell-based; conditions: read-out: IL13-pSTAT6 EC50 (uM)_BEAS-2B
Summary of the method: as §1

isolated recombinant JAK1 kinase domain, sequence (P23458 875-1153): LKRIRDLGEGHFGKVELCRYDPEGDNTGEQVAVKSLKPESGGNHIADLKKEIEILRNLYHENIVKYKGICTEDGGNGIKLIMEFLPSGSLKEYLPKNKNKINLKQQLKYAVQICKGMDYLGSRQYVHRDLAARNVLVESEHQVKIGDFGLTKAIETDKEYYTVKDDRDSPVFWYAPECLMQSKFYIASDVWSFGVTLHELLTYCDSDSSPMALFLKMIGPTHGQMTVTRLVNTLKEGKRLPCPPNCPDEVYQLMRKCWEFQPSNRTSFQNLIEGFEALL

| SMILES | pKi [1] | pKi [2] | pEC50 [3] | EC50 [4] [µM] |
| --- | --- | --- | --- | --- |
| CN1CCN(C(=O)Cn2cc(NC(=O)c3cnn4cccnc34)c(-c3cc(Cl)ccc3OC(F)F)n2)CC1 [Example 227, Pyrazolo[1,5-a]pyrimidine-3-carboxylic acid {3-(5-chloro-2-difluoromethoxyphenyl)-1-[2-(4-methylpiperazin-1-yl)-2-oxoethyl]-1H-pyrazol-4-yl}amide] | 9.26 | 9.03 | 8.44 | 0.0271 |
| O=C(Nc1cn(CC(=O)N2CCN(CCO)CC2)nc1-c1cc(Cl)ccc1OC(F)F)c1cnn2cccnc12 [Example 228, N-[3-[5-chloro-2-(difluoromethoxy)phenyl]-1-[2-[4-(2-hydroxyethyl)piperazin-1-yl]-2-oxo-ethyl]pyrazol-4-yl]pyrazolo[1,5-a]pyrimidine-3-carboxamide] | 9.33 | 9.05 | 7.95 | 0.0655 |
| CN1CCN(C(=O)Cn2cc(NC(=O)c3cnn4cccnc34)c(-c3cc(Cl)ccc3OC(F)F)n2)C[C@H]1CO [Example 235, N-[3-[5-chloro-2-(difluoromethoxy)phenyl]-1-[2-[(3S)-3-(hydroxymethyl)-4-methyl-piperazin-1-yl]-2-oxo-ethyl]pyrazol-4-yl]pyrazolo[1,5-a]pyrimidine-3-carboxamide] | 9.24 | 8.97 | 7.67 | 0.114 |
| O=C(Nc1cn(CC(=O)N2CCOCC2)nc1-c1cc(Cl)ccc1OC(F)F)c1cnn2cccnc12 [Example 288, N-[3-[5-chloro-2-(difluoromethoxy)phenyl]-1-(2-morpholino-2-oxo-ethyl)pyrazol-4-yl]pyrazolo[1,5-a]pyrimidine-3-carboxamide] | 9.24 | 8.95 | 8.55 | 0.0363 |
| O=C(Cn1cc(NC(=O)c2cnn3cccnc23)c(-c2cc(Cl)ccc2OC(F)F)n1)NCC1(CO)CC1 [Example 291, N-[3-[5-chloro-2-(difluoromethoxy)phenyl]-1-[2-[[1-(hydroxy-methyl)cyclopropyl]methylamino]-2-oxo-ethyl]pyrazol-4-yl]pyrazolo[1,5-a]pyrimidine-3-carboxamide] | 9.27 | 9.26 | 8.44 | 0.0317 |
| NCCn1cc(NC(=O)c2c(N)nn3cccnc23)c(-c2cc(Cl)ccc2OC(F)F)n1 [Example 295, 2-amino-N-[1-(2-aminoethyl)-3-[5-chloro-2-(difluoromethoxy)phenyl]pyrazol-4-yl]pyrazolo[1,5-a]pyrimidine-3-carboxamide] | 9.31 | 9.68 | 8.26 | 0.0345 |
| CN[C@H]1C[C@@H](n2cc(NC(=O)c3c(N)nn4cccnc34)c(-c3cc(Cl)ccc3OC(F)F)n2)C1 [Example 298, 2-amino-N-[3-[5-chloro-2-(difluoromethoxy)phenyl]-1-[3-(methylamino)cyclobutyl]pyrazol-4-yl]pyrazolo[1,5-a]pyrimidine-3-carboxamide] | 9.28 | 9.74 | 8.36 | 0.0215 |
| N=C(N)CCn1cc(NC(=O)c2cnn3cccnc23)c(-c2cc(Cl)ccc2OC(F)F)n1 [Example 304, N-[1-(2-carbamimidoylethyl)-3-[5-chloro-2-(difluoromethoxy)phenyl]-1H-pyrazol-4-yl]pyrazolo[1,5-a]pyrimidine-3-carboxamide] | 9.11 | 9.41 | 8.23 | 0.0469 |
| N=C(N)CCCn1cc(NC(=O)c2cnn3cccnc23)c(-c2cc(Cl)ccc2OC(F)F)n1 [Example 305, N-[1-(4-amino-4-imino-butyl)-3-[5-chloro-2-(difluoromethoxy)phenyl]pyrazol-4-yl]pyrazolo[1,5-a]pyrimidine-3-carboxamide] | 9.21 | 9.49 | 7.96 | 0.0426 |
| CCOC(=O)CNCCn1cc(NC(=O)c2cnn3cccnc23)c(-c2cc(Cl)ccc2OC(F)F)n1 [Example 306, Ethyl 2-[(2-[3-[5-chloro-2-(difluoromethoxy)phenyl]-4-[pyrazolo[1,5-a]pyrimidine-3-amido]-1H-pyrazol-1-yl]ethyl)amino]acetate] | 8.94 | 9.27 | 8.21 | 0.0659 |
| O=C(CNCCn1cc(NC(=O)c2cnn3cccnc23)c(-c2cc(Cl)ccc2OC(F)F)n1)OC1CCCC1 [Example 307, cyclopentyl 2-[2-[3-[5-chloro-2-(difluoromethoxy)phenyl]-4-(pyrazolo[1,5-a]pyrimidine-3-carbonylamino)pyrazol-1-yl]ethylamino]acetate] | 8.84 | 9.23 | 8.21 | 0.025 |
| CCOC(=O)[C@@H](N)CCn1cc(NC(=O)c2cnn3cccnc23)c(-c2cc(Cl)ccc2OC(F)F)n1 [Example 309, ethyl (2S)-2-amino-4-[3-[5-chloro-2-(difluoromethoxy)phenyl]-4-(pyrazolo[1,5-a]pyrimidine-3-carbonylamino)pyrazol-1-yl]butanoate] | 8.87 | 9.33 | 7.79 | 0.049 |

The next compounds have a higher pKi [1] than those just listed; values first:

| pKi [1] | pKi [2] | pEC50 [3] | SMILES | EC50 [4] [µM] |
| --- | --- | --- | --- | --- |
| 9.41 | 8.89 | 8.30 | CC(C)CN1CCC2(CCN(C(=O)Cn3cc(NC(=O)c4cnn5cccnc45)c(-c4cc(Cl)ccc4OC(F)F)n3)CC2)C1 [Example 225, N-[3-[5-chloro-2-(difluoromethoxy)phenyl]-1-[2-(2-isobutyl-2,8-diazaspiro[4.5]decan-8-yl)-2-oxo-ethyl]pyrazol-4-yl]pyrazolo[1,5-a]pyrimidine-3-carboxamide] | 0.0423 |
| 9.47 | 9.04 | 8.49 | O=C(Nc1cn(CC(=O)N2CCC(CO)CC2)nc1-c1cc(Cl)ccc1OC(F)F)c1cnn2cccnc12 [Example 274, N-[3-[5-chloro-2-(difluoromethoxy)phenyl]-1-[2-[4-(hydroxymethyl)-1-piperidyl]-2-oxo-ethyl]pyrazol-4-yl]pyrazolo[1,5-a]pyrimidine-3-carboxamide] | 0.0131 |
| 9.41 | 9.09 | 8.37 | CC1(O)CCN(C(=O)Cn2cc(NC(=O)c3cnn4cccnc34)c(-c3cc(Cl)ccc3OC(F)F)n2)CC1 [Example 280, N-[3-[5-chloro-2-(difluoromethoxy)phenyl]-1-[2-(4-hydroxy-4-methyl-1-piperidyl)-2-oxo-ethyl]pyrazol-4-yl]pyrazolo[1,5-a]pyrimidine-3-carboxamide] | 0.0215 |
| 9.41 | 9.40 | 8.85 | O=C(Nc1cn(CC2(O)CCCC2)nc1-c1cc(Cl)ccc1OC(F)F)c1cnn2cccnc12 [Example 292, N-[3-[5-chloro-2-(difluoromethoxy)phenyl]-1-[(1-hydroxy-cyclopentyl)methyl]pyrazol-4-yl]pyrazolo[1,5-a]pyrimidine-3-carboxamide] | 0.021 |
| 9.54 | 9.42 | 8.52 | CN(C(=O)Cn1cc(NC(=O)c2cnn3cccnc23)c(-c2cc(Cl)ccc2OC(F)F)n1)C1(CO)CC1 [Example 293] | 0.0081 |
| 9.59 | 9.68 | 8.25 | CN[C@@H]1CCC[C@H](n2cc(NC(=O)c3c(N)nn4cccnc34)c(-c3cc(Cl)ccc3OC(F)F)n2)C1 [Example 296, 2-amino-N-[3-[5-chloro-2-(difluoromethoxy)phenyl]-1-[(1S,3R)-3-(methylamino)cyclohexyl]pyrazol-4-yl]pyrazolo[1,5-a]pyrimidine-3-carboxamide] | 0.0283 |
| 9.49 | 10.15 | 8.15 | Nc1nn2cccnc2c1C(=O)Nc1cn([C@H]2C[C@@H](N)C2)nc1-c1cc(Cl)ccc1OC(F)F [Example 297, 2-Amino-pyrazolo[1,5-a]pyrimidine-3-carboxylic acid [1-(3-amino-cyclobutyl)-3-(5-chloro-2-difluoromethoxy-phenyl)-1H-pyrazol-4-yl]-amide] | 0.0308 |
| 9.42 | 9.41 | 8.39 | CCN(Cc1ccnc(C)c1)C(=O)Cn1cc(NC(=O)c2cnn3cccnc23)c(-c2cc(Cl)ccc2OC(F)F)n1 [Example 299, N-[3-[5-chloro-2-(difluoromethoxy)phenyl]-1-[2-[ethyl-[(2-methyl-4-pyridyl)methyl]amino]-2-oxo-ethyl]pyrazol-4-yl]pyrazolo[1,5-a]pyrimidine-3-carboxamide] | 0.0104 |
| 9.55 | 9.74 | 8.40 | CCN(Cc1ccnc(Cl)c1)C(=O)Cn1cc(NC(=O)c2cnn3cccnc23)c(-c2cc(Cl)ccc2OC(F)F)n1 [Example 300, N-[3-[5-chloro-2-(difluoromethoxy)phenyl]-1-[2-[(2-chloro-4-pyridyl)methyl-ethyl-amino]-2-oxo-ethyl]pyrazol-4-yl]pyrazolo[1,5-a]pyrimidine-3-carboxamide] | 0.0142 |
| 9.48 | 9.44 | 8.47 | CCN(Cc1cccnc1)C(=O)Cn1cc(NC(=O)c2cnn3cccnc23)c(-c2cc(Cl)ccc2OC(F)F)n1 [Example 301, N-[3-[5-chloro-2-(difluoromethoxy)phenyl]-1-[2-[ethyl(3-pyridylmethyl)amino]-2-oxo-ethyl]pyrazol-4-yl]pyrazolo[1,5-a]pyrimidine-3-carboxamide] | 0.0095 |
